Experimental data taken from US12391685B2, “Inhibitors of RNA-guided nuclease target binding and uses thereof” (THE BROAD INSTITUTE, INC., priority 2018, dated 2025).

Key:
[1] = target: T1, SpCas9 (Streptococcus pyogenes serotype M1, UniProt Q99ZW2); test: HiBiT assay in U2OS.eGFP.PEST cells; type: cell-based, S. pyogenes; parameters: host or cells: U2OS.eGFP.PEST; settings: 24 h
Experimental: HiBiT assay. For SpCas9 expression in cells, the previously described JDS246 plasmid was used (Kleinstiver et al., 2015b). ssODN donor DNA template with the HiBiT tag was purchased as single-stranded Ultramer DNA Oligonucleotides (IDT) and resuspended to 40 μM in nuclease-free water. For the assay, 2×10^5 cells were co-transfected with 300 ng Cas9 plasmid, 75 ng sgRNA plasmid and 100 ng ssODN using the DN-100 program of Lonza 4D nucleofector according to the manufacturer's protocols. For negative controls, either the sgRNA plasmid or the ssODN was omitted. 20,000 transfected cells were plated in each well of a 96-well plate (Corning 3904). Immediately after transfection, cells were treated with varying concentrations of BRD0539 or BRD3433 and incubated at 37° C. with 5% CO2. 24 h after transfection, the cells were washed once with PBS and kept in 80 μL PBS. An equal volume of the Nano-Glo HiBiT Lytic Reagent (Promega N3030), consisting of Nano-Glo HiBiT Lytic Buffer, Nano-Glo HiBiT Lytic Substrate, and LgBiT Protein, was added according to the manufacturer's protocol, and cells were incubated for 10 min at ambient temperature with shaking at 600 rpm (Schwinn et al., 2018a). The cells were then incubated for an additional 10 min without shaking at room temperature to allow equilibration of the HiBiT and LgBiT in the lysate. The lysate was then transferred to a white plate (Corning 3990) and luminescence was measured using an Envision plate reader (Perkin-Elmer) with 1 s of integration time.

[2] = target: T2, SpCas9:gRNA (Streptococcus pyogenes serotype M1, UniProt Q99ZW2); test: In vitro DNA cleavage assay; type: biochemical, S. pyogenes; settings: SpCas9 5 nM; read-out: apparent IC50
T2 construct: made in house; host or cells: E. coli Rosetta (DE3)
Experimental: In vitro DNA cleavage assay. Inhibition of SpCas9 nuclease activity was assessed in an in vitro DNA cleavage assay with a linearized substrate plasmid DNA. A 94 μL of preformed SpCas9:gRNA (5.3 nM) was incubated with a 3 μL DMSO solution of BRD0539 at the indicated concentrations (13.6-25 μM) for 30 min at room temperature followed by addition of 3 μL of 33.3 nM substrate DNA and incubation for additional 30 min at 37° C. The reaction was quenched by the addition of 2 μL of Proteinase K (Qiagen) for 10 min and then analyzed by 1% agarose gel and visualized by SYBR Gold (Thermofisher). The bands were quantified by Image J and plotted in GraphPad Prism.

[3] = target: FnCpf1 (Francisella tularensis subsp. novicida, UniProt A0Q7Q2); type: cell-based; settings: 6-20 μM, 30 h
[4] = target: T3, SpCas9:gRNA interaction (Streptococcus pyogenes serotype M1, UniProt Q99ZW2); test: Fluorescence polarization assay for SpCas9-gRNA binding; parameters: species or system S. pyogenes; settings: 10-30 μM
T3 construct: made in house; host or cells: E. coli Rosetta (DE3)
Experimental: FIGS. 10A-10E—(FIG. 10A) Fluorescence polarization assay for detecting SpCas9-gRNA binding. A FITC-labeled crRNA:tracrRNA (25 nM) was titrated with an increasing amount of SpCas9 (7.5-250 nM). Error bars represent ±s.d. across technical replicates (n=3). […] An unlabeled crRNA:tracrRNA (25 nM) was pre-incubated with SpCas9 (25 nM) for 10 min before the addition of FITCcrRNA:tracrRNA (25 nM). Error bars represent ±s.d. across technical replicates (n=3). (FIG. 10C) Fluorescence polarization assay for determining the effect of BRD0539 in the SpCas9-FITCcrRNA:tracrRNA binding. SpCas9 (25 nM) was incubated with the indicated amount of BRD0539 (10-30 μM) for 15 min followed by the addition of FITC-crRNA:tracrRNA (25 nM), which was incubated for 30 min before measuring the FP signal. Error bars represent ±s.d. across technical replicates (n=3). (FIG. 10D) In vitro pulldown assay of SpCas9 by the BRD0539-biotin conjugate from WM793-SpCas9 cell lysate. Streptavidin magnetic beads pre-loaded with either BRD0539-biotin or biotin-azide were incubated with WM793-SpCas9 cell lysate for 12 h before processing the samples for western blotting. BRD0539 (20 μM) was used as a competitor. F and E represent the flow-through and eluent, respectively. […]

[5] = Aggregation by dynamic light scattering in PBS; settings: 40-100 μM tested
[6] = target: T1, SpCas9; test: mKate2-disruption assay in HEK293T cells; type: cell-based, S. pyogenes; settings: 1.5-5 μM, 24 h
Experimental: mKate2-disruption assay. Approximately 8,000 cells/well were seeded in a 96-well plate 24 h before transient transfection with 100 ng of either CgRNA (Addgene Plasmid #64955) or T1gRNA (Addgene Plasmid #62717) plasmids using Lipofectamine 2000 (Life Technologies). Transfected cells were allowed to grow in the indicated amount of small molecule or DMSO for 24 h. Cells were then fixed using 4% paraformaldehyde and imaged with the HCS NuclearMask™ Blue Stain (Life Technologies) as the nuclear counter-staining agent. Imaging was performed with an ImageXpress Micro automated microscope (Molecular Devices) at 20× magnification under two excitation channels (blue and red) with 9 acquisition sites per well. Images were analyzed using the MetaXpress software to determine the % mKate2 positive cells and data was plotted using GraphPad Prism 6. The Z′-value was calculated following the formula: Z′=1−(3(σ1+σ2))/(|μ1−μ2|) where σ1 and σ2 are the standard deviations of CgRNA transfected wells and T1gRNA transfected wells respectively. μ1 and μ2 are the mean % RFP^+ cell population for CgRNA transfected wells and T1gRNA transfected wells, respectively.

T1 sequence (Q99ZW2 whole entry): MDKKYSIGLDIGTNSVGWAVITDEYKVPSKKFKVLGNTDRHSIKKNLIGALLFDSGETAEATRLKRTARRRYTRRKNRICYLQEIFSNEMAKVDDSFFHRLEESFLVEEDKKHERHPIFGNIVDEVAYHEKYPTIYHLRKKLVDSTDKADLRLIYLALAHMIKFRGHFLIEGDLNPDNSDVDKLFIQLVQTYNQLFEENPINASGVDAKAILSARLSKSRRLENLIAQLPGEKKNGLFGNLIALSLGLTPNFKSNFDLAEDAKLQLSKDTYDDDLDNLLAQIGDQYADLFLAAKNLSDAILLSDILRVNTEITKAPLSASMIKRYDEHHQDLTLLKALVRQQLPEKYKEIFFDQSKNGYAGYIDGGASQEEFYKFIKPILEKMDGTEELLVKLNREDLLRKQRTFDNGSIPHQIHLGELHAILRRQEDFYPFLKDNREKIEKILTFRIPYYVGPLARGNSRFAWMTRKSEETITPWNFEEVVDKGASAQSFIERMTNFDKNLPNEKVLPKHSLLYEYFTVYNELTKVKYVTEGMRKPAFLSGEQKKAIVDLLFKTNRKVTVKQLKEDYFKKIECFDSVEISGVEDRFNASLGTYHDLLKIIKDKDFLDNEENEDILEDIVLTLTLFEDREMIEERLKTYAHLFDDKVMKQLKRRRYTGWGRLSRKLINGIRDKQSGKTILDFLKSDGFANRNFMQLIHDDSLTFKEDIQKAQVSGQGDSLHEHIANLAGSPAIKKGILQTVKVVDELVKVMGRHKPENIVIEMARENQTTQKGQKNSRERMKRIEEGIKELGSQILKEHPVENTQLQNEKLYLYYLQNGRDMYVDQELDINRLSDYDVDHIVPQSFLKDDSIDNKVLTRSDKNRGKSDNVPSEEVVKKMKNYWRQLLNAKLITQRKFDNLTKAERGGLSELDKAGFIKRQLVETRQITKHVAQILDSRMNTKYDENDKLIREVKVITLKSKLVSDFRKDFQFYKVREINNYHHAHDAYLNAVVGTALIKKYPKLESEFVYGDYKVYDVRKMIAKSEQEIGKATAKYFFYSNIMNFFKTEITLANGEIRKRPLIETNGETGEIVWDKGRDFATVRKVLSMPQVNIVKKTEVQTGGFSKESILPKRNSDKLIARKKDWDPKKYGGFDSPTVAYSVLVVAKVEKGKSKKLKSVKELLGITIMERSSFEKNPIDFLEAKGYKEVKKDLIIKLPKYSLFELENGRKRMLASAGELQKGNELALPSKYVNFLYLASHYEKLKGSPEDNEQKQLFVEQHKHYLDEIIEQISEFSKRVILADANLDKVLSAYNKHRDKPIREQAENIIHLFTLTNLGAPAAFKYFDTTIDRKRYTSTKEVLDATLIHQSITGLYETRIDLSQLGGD
FnCpf1, sequence (A0Q7Q2 whole entry, looked up): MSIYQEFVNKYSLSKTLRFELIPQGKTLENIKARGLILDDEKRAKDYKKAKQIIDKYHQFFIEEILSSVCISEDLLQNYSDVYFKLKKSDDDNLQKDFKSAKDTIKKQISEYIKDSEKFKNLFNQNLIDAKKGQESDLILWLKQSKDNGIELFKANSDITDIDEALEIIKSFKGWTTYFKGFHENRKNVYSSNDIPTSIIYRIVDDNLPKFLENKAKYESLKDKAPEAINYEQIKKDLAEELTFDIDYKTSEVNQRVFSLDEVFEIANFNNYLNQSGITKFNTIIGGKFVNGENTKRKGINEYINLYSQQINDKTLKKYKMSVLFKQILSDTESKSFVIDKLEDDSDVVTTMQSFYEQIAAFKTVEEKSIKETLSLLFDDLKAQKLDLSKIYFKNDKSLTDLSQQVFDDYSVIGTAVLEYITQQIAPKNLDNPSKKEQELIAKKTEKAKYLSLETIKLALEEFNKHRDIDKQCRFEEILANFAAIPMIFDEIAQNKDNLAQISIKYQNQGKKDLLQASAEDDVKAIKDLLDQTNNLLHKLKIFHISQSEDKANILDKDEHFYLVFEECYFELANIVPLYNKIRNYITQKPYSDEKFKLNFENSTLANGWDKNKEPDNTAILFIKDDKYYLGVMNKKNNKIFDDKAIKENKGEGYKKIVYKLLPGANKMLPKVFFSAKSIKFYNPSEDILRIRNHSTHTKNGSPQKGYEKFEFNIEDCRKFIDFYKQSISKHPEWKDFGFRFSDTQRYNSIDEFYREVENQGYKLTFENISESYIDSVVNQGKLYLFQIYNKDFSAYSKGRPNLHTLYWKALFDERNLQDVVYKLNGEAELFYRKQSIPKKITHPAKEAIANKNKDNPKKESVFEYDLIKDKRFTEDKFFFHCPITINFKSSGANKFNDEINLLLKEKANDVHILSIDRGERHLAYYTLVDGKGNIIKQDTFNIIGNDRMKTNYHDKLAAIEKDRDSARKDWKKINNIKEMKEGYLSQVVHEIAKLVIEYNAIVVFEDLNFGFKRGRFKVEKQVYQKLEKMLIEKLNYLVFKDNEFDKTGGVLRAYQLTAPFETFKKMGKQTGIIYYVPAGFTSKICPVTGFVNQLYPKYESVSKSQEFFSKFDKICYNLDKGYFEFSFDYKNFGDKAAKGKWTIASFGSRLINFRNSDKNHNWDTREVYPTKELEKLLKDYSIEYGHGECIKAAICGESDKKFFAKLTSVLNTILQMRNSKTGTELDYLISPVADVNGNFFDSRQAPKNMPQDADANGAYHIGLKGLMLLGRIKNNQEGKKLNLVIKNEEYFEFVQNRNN
T3 sequence (Q99ZW2 whole entry): as the sequence (Q99ZW2 whole entry) above

For `Cc1ccc(S(=O)(=O)N2CC[C@@H]3[C@H](CO)Nc4ccc(-c5ccccc5F)cc4[C@@H]32)cc1` [BRD0539, ((3aR,4R,9bR)-8-(2-fluorophenyl)-1-tosyl-2,3,3a,4,5,9b-hexahydro-1H-pyrrolo[3,2-c]quinolin-4-yl) methanol], the “inhibition of SpCas9 in the HiBiT assay (in words)” value [1] was “dose-dependent inhibition”, the “higher activity of BRD0539 than BRD3497 and BRD9419 in the HiBiT assay” value ([1]; tested from 4.8-15 μM) was “greater than two-fold” and the IC50 [2] was 22 µM. The “inhibition of FnCpf1 (in words)” value [3] was “unable to inhibit” and the “effect on SpCas9-FITC-crRNA:tracrRNA polarization signal” value [4] was “did not perturb the polarization signal”.
With `OC[C@H]1Nc2ccc(-c3cccc(F)c3)cc2[C@H]2[C@@H]1CCN2Cc1ccncc1` [BRD7087, ((3aR,4S,9bR)-8-(3-Fluorophenyl)-1-(pyridin-4-ylmethyl)-2,3,3a,4,5,9b-hexahydro-1H-pyrrolo[3,2-c]quinolin-4-yl) methanol] the “concentration beyond which aggregates form” value [5] was greater than 80 µM, the “no detectable aggregation up to” value [5] was roughly 60 µM and the “inhibition of SpCas9 in the mKate2 disruption assay (in words)” value [6] was “dose-dependent inhibition”.
